Results: patent US9061030B2, “sGC stimulators” (IRONWOOD PHARMACEUTICALS, INC., priority 2010, dated 2015)

Tested on: Thoracic aortic rings
Assay: Thoracic aortic rings assay
Design: species or system rat
Conditions: relaxation of rat thoracic aortic rings contracted with 100 ng/mL phenylephrine; read-out: Aortic Ring EC50
Description: Thoracic aortic rings were dissected from anesthetized (isoflurane) male Sprague-Dawley rats weighing 275-299 g. Tissues were immediately transferred to ice-cold Krebs-Henseleit solution, which had been aerated with 95% O2 and 5% CO2 for 30 minutes. Following removal of connective tissue, aortic sections were cut into 4 rings (˜2 mm each) and suspended on 2 L-shaped hooks, with one hook fixed at the bottom of the tissue bath (Schuler Organ Bath, Harvard Apparatus) and the other connected to a force transducer (F30 Force Transducer, Harvard Apparatus). Baths contained Krebs Henseleit solution (10 mL) heated to 37° C. and aerated with 95% O2 and 5% CO2. Rings were brought to an initial tension of 0.3-0.5 g and gradually raised to a resting tension of 1.0 g over 60 minutes. Rings were rinsed with Krebs Henseleit solution (heated to 37° C. and aerated with 95% 02 and 5% CO2) at 15 minute intervals until a stable baseline was obtained. Rings were considered to be stable after a resting tension of 1.0 g was maintained (for approximately 10 minutes) without need for adjustment. Rings were then contracted with 100 ng/mL phenylephrine by adding 100 μL of a 10 μg/mL phenylephrine stock solution. Tissues achieving a stable contraction were then treated in a cumulative, dose dependent manner with test compounds prepared in dimethylsulfoxide (DMSO). In some cases, tissues were rinsed three times over a 5 minute period with Krebs-Heinseleit's solution (heated to 37° C. and aerated with 95% 02 and 5% CO2), allowed to stabilize at baseline, and then used for characterization of other test articles or DMSO effects. All data were collected using the HSE-ACAD software provided by Harvard Apparatus. Percent relaxation effects were calculated in Microsoft Excel using the recorded tension value of 100 ng/mL phenylephrine treatment as 0% inhibition and, after washing the tissue with buffer, the original resting tension of tissue is used as 100% inhibition. EC50 values were calculated from concentration-response curves generated with GraphPad Prism Software.
The biological data for some of the compounds of Formula IA and Formula IB, in comparison with the prior art compound, BAY 41-2272, as the reference compound, determined by the thoracic aorta ring assay are presented in Table 6 below.

EC50: < 1 µM
Structure (SMILES): Nc1nc(-c2nn(Cc3ccccc3F)c3ncccc23)ncc1C1CC1 [BAY-41-2272, reference compound]
